Assay results: patent publication US20140128357A1, “METHODS OF PRODUCING AND USING BRASSINOSTEROIDS TO PROMOTE GROWTH, REPAIR AND MAINTENANCE OF SKELETAL MUSCLE AND SKIN” (Rutgers University, priority 2010, published 2014)
Marks after values point to notes of the source that are not given here.

Key:
[1] = Body composition and blood biochemistry, rats on normal diet, 24 d oral HB (Protocol 1); type: in vivo, rat; details: for Bone mineral content / Fat mass / Lean mass / change in fat mass vs control / increase in lean body mass vs control: DEXA
Experimental: Six-week-old male Wistar rats (180-220 g, Charles River Laboratories, MA) were housed in individual chambers in a room maintained at a constant room temperature with 12 h light-dark cycle. Animals had free access to food and water. Animals were allowed to adapt to new conditions for 7 d and handling the animals was carried out daily during this time to reduce the stress of physical manipulation. Animals were randomized into groups according to bodyweight 1 d prior to dosing.
(§1) The body weight of each animal and the total amount of food consumed (accounted for spillage) were recorded every 2 d for the duration of the experiment. At the end of the experiment, blood was collected by heart puncture after CO2 inhalation and animal body composition was assessed by DEXA dual-energy X-ray absorptiometry analysis using a Lunar Prodigy Densitometer (GE Healthcare, Waukesha, Wis.). At necropsy, tissue weights were recorded. Tissue samples were collected by snap-freezing in liquid nitrogen and stored at −80° C. for further studies. Total RNA was isolated using Trizol, its quantity and purity were determined using a NanoDrop (Nanodrop Technologies, Wilmington, Del.).
Blood samples were taken from overnight-fasted animals by heart puncture, collected in EDTA-coated tubes, centrifuged 1,500 g for 20 min, and separated plasma was stored at −80° C. until analysis. Glucose was measured in blood samples using a Lifescan glucometer (Johnson and Johnson, New Brunswick, N.J.). […] Plasma triglycerides and total cholesterol were measured by enzymatic colorimetric assays (Wako Diagnostics, Richmond, Va.). Total testosterone in plasma samples was quantified by an ELISA assay (DRG Diagnostics, Marburg, Germany).

[2] = test system: gastrocnemius muscle mRNA (insulin signaling pathway, myogenic transcription factors); assay: Gene expression in gastrocnemius muscle, insulin signaling PCR array and RT-PCR; type: in vivo, rat; details: 60 mg/kg oral 24 d
Experimental: as §1
Pooled RNA samples obtained from frozen skeletal muscle (gastrocnemius muscle biopsies of vehicle- (Ctr) and HB-treated animals) were used in a rat insulin signaling PCR array to measure mRNA response to HB. […] However, the magnitude of the differences varied (FIG. 11A).

3T3 mouse fibroblasts = assay: Cell proliferation, BrdU assay; type: cell-based; details: 24 h
Experimental: 3T3 fibroblasts were seeded in a 96-well flat bottom plate at a density of 1×10^4 cells/well. Cell viability was measured by an MTT (3-(4,5-Dimethylthiazol-2-yl)-2,5-diphenyltetrazolium bromide) assay in triplicate (0.3-30 μM of test substance for […]) essentially as described by Mosmann (J. Immunol. Methods 65, 55-63, 1983) and quantified spectrophotometrically at 550 nm using a microplate reader (Molecular Devices, Sunnyvale, Calif.). […] For cell proliferation studies, cells were treated in triplicate with 0.1-10 μM of test substance for 24 h and assayed using a BrdU (5-bromo-2′-deoxyuridine) kit from Amersham (Uppsala, Sweden).

[3] = test system: elastin mRNA in human neonatal dermal fibroblasts (HNDF); assay: Elastin gene expression in human dermal fibroblasts, qPCR; type: cell-based; details: 16 h
Experimental: Human neonatal dermal fibroblasts (HNDF) were maintained in DMEM+10% FBS and were kept in a humidified 37° C. incubator with 5% CO2. Cells were plated at a density of 1×10^4 cells per well in a 24-well plate and incubated for 24 h, or until 100% confluency was reached. Subsequently, the media was removed and cells were washed with 500 μL PBS twice to remove detached cells or cell debris. HNDF were then treated for 16 h as follows: DMEM only, retinoic Acid 5 μM, retinoic acid 10 μM, Homocastasterone 5 μM and Homocastasterone 10 μM.
RNA was extracted from HNDF using Trizol reagent (Invitrogen) following manufacturer instructions. RNA was quantified spectrophotometrically by absorbance measurements at 260 nm and 280 nm using the NanoDrop system (NanoDrop Technologies, Wilmington, Del.). Quality of RNA was assessed by separation in gel-electrophoresis. To remove any traces of DNA contamination, RNA was then treated with Dnase I (Invitrogen) following the manufacturer guidelines. Complementary DNAs (cDNAs) were synthesized using 3.0 μg of RNA for each sample using Applied Biosystems High Capacity cDNA Reverse Transcription Kit following the manufacturer's protocol.
Quantitative RT-PCR (qPCR) amplifications were carried out in triplicate on an ABI 7300 Real-Time Detection System in a total volume of 25 μl containing 12.5 μl Brilliant SYBR® Green PCR master mix (Applied Biosystems), 5 μl of the 1:25 diluted cDNA, 0.5 μl of 6 μM gene-specific primers (IDT, Coralville, Iowa) and […] PCR-grade water. Primers were synthesized by Integrated DNA Technologies, Inc. (Coralville, Iowa, USA) as follows: β-actin, forward primer 5′-ACGTTGCTATCCAGGCTGTGCTAT-3′ (SEQ ID NO: 1), reverse primer 5′-CTCGGTGAGGATCTTCATGAGGTAGT-3′ (SEQ ID NO: 2); elastin, forward primer 5′-AAGCAGCAGCAAAGTTCGGT-3′ (SEQ ID NO: 3), and reverse primer 5′-ACTAAGCCTGCAGCAGCTCCATA-3′ (SEQ ID NO: 4). qPCR amplifications were performed on the 7300 Real Time PCR System (A&B Applied Biosystems) using 1 cycle at 50° C. for 2 min, 1 cycle at 95° C. for 10 min, followed by 40 cycles of 15 s at 95° C. and 1 min at 60° C. The dissociation curve was completed with one cycle of 15 s at 95° C., 1 min at 60° C., and 15 s of 95° C. No RT (NRT) and no template control (NTC) were included in each experiment as quality control steps. Target mRNA expression was analyzed using the ΔΔCt method and normalized with respect to the expression of the β-actin housekeeping gene. Cells treated with DMEM only (negative control) served as the calibrator sample in this study, and a value of 1.0 was assigned to the target gene expression of the calibrator sample. All samples were run in triplicate. A p value of 0.001 was considered to be significant.

[4] = pooled gastrocnemius RNA, PCR array

CC[C@@H](C(C)C)[C@H](O)[C@@H](O)[C@@H](C)[C@H]1CC[C@H]2[C@@H]3COC(=O)[C@H]4C[C@H](O)[C@H](O)C[C@]4(C)[C@H]3CC[C@]12C [Compound 1, (22S,23S,24S)-2α,3α,22,23-tetrahydroxy-24 ethyl-β-homo-7-oxo-5α-cholestane-6-one]
Body weight ([1]; 20 mg/kg oral daily 24 d): 324.3 ± 11.5 g | Body weight gain ([1]; 20 mg/kg oral daily 24 d): 126.6 ± 7.1 g | Gastrocnemius muscle ([1]; 20 mg/kg oral daily 24 d): 2.07 ± 0.06 g | increase in gastrocnemius muscle mass ([1]; 20 mg/kg oral daily 24 d): 15.6% | increase of total body weight gain relative to initial body weight, compared with vehicle-treated controls ([1]; 20 mg/kg oral daily 24 d): 18.3% | Bone mineral content ([1]; 20 mg/kg oral daily 24 d): 7.0 ± 0.3 g | Fat mass ([1]; 20 mg/kg oral daily 24 d): 49.0 ± 4.3 g | Lean mass ([1]; 20 mg/kg oral daily 24 d): 268.3 ± 9.0 g | change in fat mass vs control ([1]; 20 mg/kg oral daily 24 d): −3.9% | increase in lean body mass vs control ([1]; 20 mg/kg oral daily 24 d): 7.0% | Body weight ([1]; 60 mg/kg oral daily 24 d): 342.3 ± 4.9 g | Body weight gain ([1]; 60 mg/kg oral daily 24 d): 135.7 ± 9.4 g | Gastrocnemius muscle ([1]; 60 mg/kg oral daily 24 d): 2.13 ± 0.12 g | increase in gastrocnemius muscle mass ([1]; 60 mg/kg oral daily 24 d): 19.0% | increase of total body weight gain relative to initial body weight, compared with vehicle-treated controls ([1]; 60 mg/kg oral daily 24 d): 26.8% | Bone mineral content ([1]; 60 mg/kg oral daily 24 d): 7.4 ± 0.1 g | Fat mass ([1]; 60 mg/kg oral daily 24 d): 48.5 ± 3.8 g | Lean mass ([1]; 60 mg/kg oral daily 24 d): 286.5 ± 4.3 g | change in fat mass vs control ([1]; 60 mg/kg oral daily 24 d): −4.9% | increase in lean body mass vs control ([1]; 60 mg/kg oral daily 24 d): 14.2% | expression of EIF2B1 [2]: No changes | MYF5 mRNA upregulation ([2]; RT-PCR (FIG. 11C)): 1.3 fold | MYF6 mRNA upregulation ([2]; RT-PCR (FIG. 11C)): 1.3 fold | MYOD1 mRNA upregulation ([2]; RT-PCR (FIG. 11C)): 2.1 fold | MYOG (myogenin) mRNA upregulation ([2]; RT-PCR (FIG. 11C)): 1.7 fold | ADRA1D mRNA upregulation [2, 4]: 6.5 fold | FBP2 mRNA upregulation [2, 4]: 4.5 fold | IGF-2 mRNA upregulation [2, 4]: 1.4 fold | IGFBP1 mRNA upregulation [2, 4]: 2.5 fold | SREBP-1 mRNA upregulation [2, 4]: 2.5 fold | Cell proliferation at 5 μM, % of control (3T3 mouse fibroblasts): 37.7 ± 3.4 %

CC[C@@H](C(C)C)[C@H](O)[C@@H](O)[C@@H](C)[C@H]1CC[C@H]2[C@@H]3CC(=O)[C@H]4C[C@H](O)[C@H](O)C[C@]4(C)[C@H]3CC[C@]12C [Compound 2, (22S,23S,24S)-2α,3α, 22,23-tetrahydroxy-24-ethyl-5α-cholestan-6-one]
Increase in elastin mRNA levels (-fold over control) ([3]; 5 μM): 1.7 fold | Increase in elastin mRNA levels (-fold over control) ([3]; 10 μM, listed as Homocastasterone): 3.2** fold | Increase in elastin mRNA levels (-fold over control) ([3]; 10 μM, listed as homocastasterone): up to 3.23±0.4 fold
